The source of these data is the supplement of paper PMC11208160.

The nature of this series: recombinant barcode read abundance after kanamycin selection (control-corrected) (log10(CPM+1)); higher = more efficient recombination; sequences stand for … in AGTGCAGAGAAAATCGGCCAGTTTTCTCTGCCTGCAGTCCGCATGCCGT…AGATTTATGCAGCGGACTGCCTTTCTCCCAAAGTGATAAACCGGACAGTATCATGGACCGGTTTTCCCGGTAATCCGTATTTGCAAGGTTGGTTTCACT; site = the 11-nt target. The gist of the method:
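Pooled oligos, each joining a target to an IS621 bridge RNA target-binding loop, were cloned and co-electroporated with a donor plasmid into E. coli. Selective plates carried chloramphenicol/ampicillin/kanamycin and 0.1 mM IPTG, while chloramphenicol/ampicillin LB agar served as control, with two replicates of each. Recombination efficiency rests on averaged, control-corrected counts per million of barcodes at recombinant junctions, shown as log10(CPM+1).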
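Also: IS621 recombinase and bridge RNA in Escherichia coli cells.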

For “CTAGGAGCTTGGGTTCTAACCTGTTGCTG (site CTAGGAGCTAA)”, the “recombinant barcode read abundance (log10)” value came out at 0.19. To “CTAGGAGCTTGGGTTCTAACCTGTTGCTG (site CTAGGAGCTCA)” belongs 1.75; to “CTAGGAGCTTGGGTTCTAACCTGTTGCTG (site CTAGGAGCTGA)”, 0.169. With “CTAGGAGCTTGGGTTCTAACCTGTTGCTG (site CTAGGAGCTTA)”, the “recombinant barcode read abundance (log10)” value came to 0.073. Regarding “CTAGGATCTTGGGTTCTAACCTGTTGCCA (site CTAGGATCTAT)”, the “recombinant barcode read abundance (log10)” value worked out at 0.844. To “CTAGGATCTTGGGTTCTAACCTGTTGCCA (site CTAGGATCTTG)” belongs 0.24; to “CTAGGCCCTTGGGTTCTAACCTGTTGCGT (site CTAGGCCCTAA)”, 0.361.

“CTAGGCCCTTGGGTTCTAACCTGTTGCGT (site CTAGGCCCTAC)”: the “recombinant barcode read abundance (log10)” value is 3.3.

Consider “CTAGGCCCTTGGGTTCTAACCTGTTGCGT (site CTAGGCCCTAG)”, for which the “recombinant barcode read abundance (log10)” value amounted to 0.264. With “CTAGGCCCTTGGGTTCTAACCTGTTGCGT (site CTAGGCCCTAT)” the figure was 2.28.

As for “CTAGTAGCTTGGGTTCTAACCTGTTGCCG (site CTAGTAGCTCG)”, the “recombinant barcode read abundance (log10)” value is 1.84. To “CTAGTAGCTTGGGTTCTAACCTGTTGCCG (site CTATTAGCTCG)” belongs 0.277; to “CTAGTAGCTTGGGTTCTAACCTGTTGCGT (site CTAGTAGCTAC)”, 2.25. Take “CTAGTAGCTTGGGTTCTAACCTGTTGCGT (site CTAGTAGCTCC)”: the “recombinant barcode read abundance (log10)” value was determined as 0.378. With “CTAGTCTCTTGGGTTCTAACCTGTTGCGT (site CTAGGATCTAC)” the figure was 0.0308. Consider “CTAGTCTCTTGGGTTCTAACCTGTTGCGT (site CTAGTCTCTAC)”, for which the “recombinant barcode read abundance (log10)” value came out at 3.07. To “CTAGTGACTTGGGTTCTAACCTGTTGCGC (site CTAGTGACTAC)” belongs 0.0258; to “CTAGTGACTTGGGTTCTAACCTGTTGCGC (site CTAGTGACTCC)”, 0.0835; to “CTAGTGACTTGGGTTCTAACCTGTTGCGC (site CTAGTGACTGC)”, 2.12. Consider “CTAGTGACTTGGGTTCTAACCTGTTGCGC (site CTAGTGACTTC)”, for which the “recombinant barcode read abundance (log10)” value stood at 0.127. With “CTAGTGACTTGGGTTCTAACCTGTTGCGT (site CTAGTGACTAC)”, the “recombinant barcode read abundance (log10)” value was determined as 1.17. With “CTAGTGACTTGGGTTCTAACCTGTTGCGT (site CTAGTGACTCC)”, the “recombinant barcode read abundance (log10)” value stood at 0.313. With “CTAGTGACTTGGGTTCTAACCTGTTGCGT (site CTAGTGACTGC)”, the “recombinant barcode read abundance (log10)” value worked out at 0.0977. With “CTAGTGACTTGGGTTCTAACCTGTTGCGT (site CTAGTGACTTC)” the figure was 0.00958; with “CTATACTCTTGGGTTCTAACCTGTTGCCA (site CTATACTCTTG)”, 1.03; with “CTATACTCTTGGGTTCTAACCTGTTGCCA (site CTATTCTCTTA)”, 0.195. For the sequence “CTATATGCTTGGGTTCTAACCTGTTGCTT (site CTATATGCTAA)”, the “recombinant barcode read abundance (log10)” value turned out to be 0.613. With “CTATATGCTTGGGTTCTAACCTGTTGCTT (site TAGACCACTGT)” the figure was 0.449; with “CTATCGCCTTGGGTTCTAACCTGTTGCCT (site CTATCGCCTAG)”, 0.496; with “CTATCGCCTTGGGTTCTAACCTGTTGCCT (site CTCTCGCCTAG)”, 0.238. To “CTATCGCCTTGGGTTCTAACCTGTTGCCT (site CTGTCGCCTAG)” belongs 0.0772; to “CTATCGCCTTGGGTTCTAACCTGTTGCCT (site CTTTCGCCTAG)”, 0.0941; to “CTATTATCTTGGGTTCTAACCTGTTGCCT (site CTATTATCTAG)”, 0.935. To “CTATTATCTTGGGTTCTAACCTGTTGCCT (site CTGTTATCTAG)” belongs 0.0433; to “CTATTCTCTTGGGTTCTAACCTGTTGCCT (site CTATTCACTAG)”, 0.472; to “CTATTCTCTTGGGTTCTAACCTGTTGCCT (site CTATTCCCTAG)”, 0.188.

As to “CTATTCTCTTGGGTTCTAACCTGTTGCCT (site CTATTCGCTAG)”, the “recombinant barcode read abundance (log10)” value was 0.011. With “CTATTCTCTTGGGTTCTAACCTGTTGCCT (site CTATTCTCTAG)” the figure was 2.03; with “CTATTTGCTTGGGTTCTAACCTGTTGCAA (site CTAATTGCTTT)”, 0.0524. Take “CTATTTGCTTGGGTTCTAACCTGTTGCAA (site CTACTTGCTTT)”: the “recombinant barcode read abundance (log10)” value came out at 0.103. As to “CTATTTGCTTGGGTTCTAACCTGTTGCAA (site CTAGTTGCTTT)”, the “recombinant barcode read abundance (log10)” value is 0.0402. To “CTATTTGCTTGGGTTCTAACCTGTTGCAA (site CTATTTGCTTT)” belongs 0.0441; to “CTCATTCCTTGGGTTCTAACCTGTTGCGT (site CTCATTCCTAA)”, 0.00984; to “CTCATTCCTTGGGTTCTAACCTGTTGCGT (site CTCATTCCTAC)”, 1.4. With “CTCATTCCTTGGGTTCTAACCTGTTGCGT (site CTCATTCCTAG)” the figure was 0.0869; with “CTCATTCCTTGGGTTCTAACCTGTTGCGT (site CTCATTCCTAT)”, 0.212; with “CTCCATTCTTGGGTTCTAACCTGTTGCAT (site CTCAATTCTAT)”, 0.217.

As to “CTCCATTCTTGGGTTCTAACCTGTTGCAT (site CTCCATTCTAT)”, the “recombinant barcode read abundance (log10)” value was found to be 1.74. For the sequence “CTCCATTCTTGGGTTCTAACCTGTTGCAT (site CTCGATTCTAT)”, the “recombinant barcode read abundance (log10)” value came out at 0.123. With “CTCCATTCTTGGGTTCTAACCTGTTGCAT (site CTCTATTCTAT)” the figure was 0.34; with “CTCCCTACTTGGGTTCTAACCTGTTGCAG (site CTCCCAACTCG)”, 0.072; with “CTCCCTACTTGGGTTCTAACCTGTTGCAG (site CTCCCTACTCT)”, 1.68. To “CTCCGGCCTTGGGTTCTAACCTGTTGCTT (site CTCCGACCTAA)” belongs 0.809; to “CTCCGGCCTTGGGTTCTAACCTGTTGCTT (site CTCCGCCCTAA)”, 0.0895. To “CTCCGGCCTTGGGTTCTAACCTGTTGCTT (site CTCCGGCCTAA)” belongs 0.521. Regarding “CTCCGGCCTTGGGTTCTAACCTGTTGCTT (site CTCCGTCCTAA)”, the “recombinant barcode read abundance (log10)” value is 0.0711. Consider “CTCCGTACTTGGGTTCTAACCTGTTGCCG (site CTCCGTACTCG)”, for which the “recombinant barcode read abundance (log10)” value worked out at 0.13. Turning to “CTCCGTACTTGGGTTCTAACCTGTTGCCG (site CTTCGTACTTG)”, the “recombinant barcode read abundance (log10)” value came out at 0.0671. With “CTCCTACCTTGGGTTCTAACCTGTTGCCT (site CGCCTAGCTAG)” the figure was 0.11.
